Molecular target: T1, DNA helicase/primase complex protein (Herpes simplex virus (type 1 / strain 17), UniProt P10236)
T1 sequence (P10236 whole entry): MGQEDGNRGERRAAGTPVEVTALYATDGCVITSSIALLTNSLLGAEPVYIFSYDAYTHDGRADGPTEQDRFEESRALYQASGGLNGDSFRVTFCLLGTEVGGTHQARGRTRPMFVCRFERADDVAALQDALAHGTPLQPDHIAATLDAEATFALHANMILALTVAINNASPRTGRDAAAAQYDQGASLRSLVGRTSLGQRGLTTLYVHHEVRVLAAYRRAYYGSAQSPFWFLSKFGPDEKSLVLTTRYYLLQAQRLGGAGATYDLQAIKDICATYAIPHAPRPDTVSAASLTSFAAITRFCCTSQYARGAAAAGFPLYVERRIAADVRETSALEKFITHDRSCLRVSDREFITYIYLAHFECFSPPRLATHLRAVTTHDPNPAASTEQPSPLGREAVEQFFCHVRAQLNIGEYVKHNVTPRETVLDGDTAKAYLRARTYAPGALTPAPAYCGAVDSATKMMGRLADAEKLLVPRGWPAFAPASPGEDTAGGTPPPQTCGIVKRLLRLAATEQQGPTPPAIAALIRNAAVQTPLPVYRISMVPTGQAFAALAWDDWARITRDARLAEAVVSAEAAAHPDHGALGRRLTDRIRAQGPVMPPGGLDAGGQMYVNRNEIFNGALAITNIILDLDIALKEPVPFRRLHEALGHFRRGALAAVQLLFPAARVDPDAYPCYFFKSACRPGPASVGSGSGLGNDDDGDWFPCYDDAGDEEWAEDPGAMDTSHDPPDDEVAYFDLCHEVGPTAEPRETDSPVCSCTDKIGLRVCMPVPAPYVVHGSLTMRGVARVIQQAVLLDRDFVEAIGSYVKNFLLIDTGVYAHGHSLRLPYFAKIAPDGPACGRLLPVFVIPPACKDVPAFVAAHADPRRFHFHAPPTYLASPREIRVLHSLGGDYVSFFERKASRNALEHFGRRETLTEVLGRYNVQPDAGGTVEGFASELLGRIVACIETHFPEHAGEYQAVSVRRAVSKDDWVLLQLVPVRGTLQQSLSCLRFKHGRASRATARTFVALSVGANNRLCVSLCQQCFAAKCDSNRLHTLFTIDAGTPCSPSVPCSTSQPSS
Assay: Inhibitory concentration against herpes simplex virus helicase primase 8 (HSV)

Structure (SMILES): O=C(O)CS(=O)(=O)c1ccc(-c2ccccc2)cc1
- IC50: > 80 µM

From ChEMBL document CHEMBL1139458, “Discovery of small-molecule inhibitors of the ATPase activity of human papillomavirus E1 helicase” (J Med Chem, 2004)
